Earlier results, collected in patent publication US20150141462A1, “PHARMACEUTICAL COMPOSITIONS AND METHODS FOR TREATING DRUG ADDICTION AND PREVENTING A DRUG RELAPSE” (priority 2012, published 2015).

What was measured:
[1] = tested on: rats
[2] = not given; remark: listed apart in the source
[3] = tested on: animal models of addiction; conditions: mGluR5 antagonists

| Structure (SMILES) | extinction of cocaine-induced conditioned place preference [1] | cocaine-seeking behavior (following intravenous self-administration) | reacquisition of cocaine self-administration (in vivo) | reinstatement ([2]; following methamphetamine self-administration) | extinction following methamphetamine self-administration ([2]; in vivo) | self-administration of drugs of abuse [3] |
| --- | --- | --- | --- | --- | --- | --- |
| N#Cc1cccc(C(=O)Nc2cc(-c3ccccc3)nn2-c2ccccc2)c1 [CDPPB, 3-cyano-N-(1,3-diphenyl-1H-pyrazol-5-yl)benzamide] | enhances extinction | reduces cocaine-seeking behavior | deters the reacquisition | reduced reinstatement slightly | improved extinction |  |
| Cc1cccc(C#Cc2ccccc2)n1.Cl [MPEP, 2-methyl-6-(phenylethynyl)pyridine hydrochloride] |  |  |  |  |  | reduce self-administration of virtually all drugs of abuse |
| Cc1nc(C#Cc2cccnc2)cs1 [MTEP, 3-((2-methyl-4-thiazolyl)ethynyl)pyridine] |  |  |  |  |  | reduce self-administration of virtually all drugs of abuse |
